Values quoted from earlier work as cited in patent US10792293B2, “Topical nanodrug formulation” (priority 2015, dated 2020).

CC(=O)S[C@@H]1CC2=CC(=O)CC[C@]2(C)[C@H]2CC[C@@]3(C)[C@@H](CC[C@@]34CCC(=O)O4)[C@H]12 [Spironolactone, spironolactone]
solubility in water: about 2.8 mg/100 ml
